Assay results taken from US4415546A, “Biologically active analogs of ACTH and radioimmuno assay therefor” (priority 1981, dated 1983).
Read-outs that look alike come from different tables or passages of the source. No end group written: not given here.

How the values were obtained:
[1] = tested on: isolated rat adrenocortical cells; experiment: isolated rat adrenocortical cell assay (corticosterone production); assay type: cell-based
steroidogenesis = details: literature values; cited from earlier work
ACTH antiserum = experiment: standard radioimmunoassay, displacement of [125I]-Tyr23,Phe2,Nle4-ACTH (1-38) from ACTH antiserum; assay type: binding, rabbit
Description: Standard radioimmunoassays were performed as follows: Unlabeled ACTH or other peptides in a volume of 50 μl were mixed with 50 μl antiserum and 50 μl Protein A immunoprecipitant washed as described above. All components were prepared in assay buffer and incubated at 4° for 24 hr. […] One ml of assay buffer was added and the tubes were processed as described above for counting in the Beckman 4000 counter.

ACTH antiserum 46-1 = experiment: saturation curves of ACTH antiserum with labeled ACTH; assay type: binding, rabbit
Description: Varying amounts of labeled ACTH were incubated with the antiserum at a final dilution of 1:58,000 in a total volume of 200 μl for 2 hr. at room temperature. Blanks containing no antiserum were included for each point.
25 μl of this washed protein A immunoprecipitant was added and the incubation was continued at 4° for 18 hr. One ml of assay buffer at 4° was added to a series of tubes and the tubes were then centrifuged at 2500 rpm for 15 min in a Beckman model TJ-6 refrigerated centrifuge.
The tubes containing [^3 H]-ACTH were processed similarly, drained, wiped and then 0.5 ml 0.1 N NaOH was added. The tubes were stirred on a Vortex mixer for 20 sec. and incubated at 37° for 30 min. An aliquot (0.4 ml) of the NaOH extract was mixed with phase combininhg scintillant (PCS, Amersham) and counted in a Packard PRIAS scintillation counter.

[2] = isolated rat adrenocortical cells, result in words

Substance: Phe^2, Nle^4 -ACTH-(1-38)
- maximal stimulation of corticosterone production compared with human ACTH [1, 2]: same maximal degree as human ACTH
- steroidogenic potency compared with ACTH [1, 2]: as potent as ACTH

Substance: [^125 I]ACTH: 125I labelled natural ACTH prepared by a lactoperoxidase process (McIlhinney and Schulster) (SYSMEHFRWGKPVGKKRRPVKVYPNGAEDESAEAFPLEF; also: 125I label (lactoperoxidase); UniProt P01189 138-176, looked up)
- steroidogenic activity / potency relative to natural ACTH (steroidogenesis): 50%

Substance: monoiodo Tyr^23,Phe^2,Nle^4 -ACTH (1-38)
- steroidogenic potency compared with ACTH [1, 2]: equipotent with ACTH
- displacement curve compared with ACTH (ACTH antiserum; result in words): identical

Substance: H-Ser^1 -Tyr-Ser-Met-Glu^5 -His-Phe-Arg-Trp-Gly^10 -Lys-Pro-Val-Gly-Lys^15 -Lys-Arg-Arg-Pro-Val^20 -Lys-Val-Tyr-Pro-Asn^25 -Gly-Ala-Glu-Asp-Glu^30 -Ser-Ala-Glu-Ala-Phe^35 -Pro-Leu-Glu-Phe^39 -Oh [ACTH]
- Kd (ACTH antiserum 46-1; from saturation curves, antiserum dilution 1:58,000, read-out: apparent dissociation constant for the interaction with antiserum 46-1): 0.096 ± 0.016 nM
- IC50 (ACTH antiserum; preincubation of the antiserum with the competing peptide, read-out: value for 50% displacement of radioligand): 0.0203 ± 0.0033 nM
- equivalents of unlabeled hormone for 50% displacement of the radioligand (ACTH antiserum; under the preincubation conditions): less than one equivalent
- equivalents of unlabeled hormone for 50% displacement of the radioligand (ACTH antiserum; without preincubation): one equivalent

Substance: [^125 I]-Tyr^23,Phe^2,Nle^4 -ACTH (1-38)
- EC50 ([1]; corticosterone production, 37° for 1 hr, non-linear least squares analysis, read-out: concentration required for half maximal stimulation of steroidogenesis): 0.0407 ± 0.0069 nM
- steroidogenic potency compared with ACTH [1, 2]: indistinguishable from that of ACTH
- Kd (ACTH antiserum 46-1; saturation binding, no preincubation, read-out: concentration needed for half-maximal binding of the radioligand): 0.096 ± 0.016 nM
